Measured values reported in patent US7118895B2, “Process for producing aglycon by using diglycosidase and flavor-improved food containing the aglycon and converting agent to be used in the process” (Amano Enzyme Inc., priority 2000, dated 2006).

Tested on: Crude diglycosidase
Experiment: Examination of temperature in the conversion into isoflavone aglycons by diglycosidase using soybean materials
Format: biochemical, Penicillium multicolor IAM7153
Parameters: Decomposition efficiency of glycitin family in roasted soy flour / Decomposition efficiency of daidzin family in roasted soy flour / Decomposition efficiency of genistin family in soymilk / Decomposition efficiency of daidzin family in soymilk / Decomposition efficiency of glycitin family in defatted soybean / Decomposition efficiency of daidzin family in defatted soybean: concentration or dose not given beside the values
Details: for maximum isolation of aglycons: reaction at 55° C. for 6 hours
Outline: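 Temperature series (30-80° C.) of crude diglycosidase, diluted to 1.88 AU/mL in 20 mM acetate pH 4.0, acting on roasted soy flour, soymilk, defatted soybean or soy protein concentrate. Samples quenched with ethanol after 0-6 h, centrifuged, filtered and analyzed by HPLC for glycosides versus aglycons.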

[1] = 30° C., heat treatment of enzyme no, reaction time 0 h
[2] = 30° C., heat treatment of enzyme no, reaction time 1 h
[3] = 30° C., heat treatment of enzyme no, reaction time 3 h
[4] = 30° C., heat treatment of enzyme no, reaction time 6 h
[5] = 30° C., heat treatment of enzyme yes, reaction time 6 h
[6] = 45° C., heat treatment of enzyme no, reaction time 0 h
[7] = 45° C., heat treatment of enzyme no, reaction time 1 h
[8] = 45° C., heat treatment of enzyme no, reaction time 3 h
[9] = 45° C., heat treatment of enzyme no, reaction time 6 h
[10] = 45° C., heat treatment of enzyme yes, reaction time 6 h
[11] = 45 °C, heat treatment of enzyme: no, 0 h
[12] = 45 °C, heat treatment of enzyme: no, 1 h
[13] = 45 °C, heat treatment of enzyme: no, 3 h
[14] = 45 °C, heat treatment of enzyme: no, 6 h
[15] = 45 °C, heat treatment of enzyme: yes, 6 h
[16] = 55° C., heat treatment of enzyme no, reaction time 0 h
[17] = 55° C., heat treatment of enzyme no, reaction time 1 h
[18] = 55° C., heat treatment of enzyme no, reaction time 3 h
[19] = 55° C., heat treatment of enzyme no, reaction time 6 h
[20] = 55° C., heat treatment of enzyme yes, reaction time 6 h
[21] = 55 °C, heat treatment of enzyme: no, 0 h
[22] = 55 °C, heat treatment of enzyme: no, 1 h
[23] = 55 °C, heat treatment of enzyme: no, 3 h
[24] = 55 °C, heat treatment of enzyme: no, 6 h
[25] = 55 °C, heat treatment of enzyme: yes, 6 h
[26] = 65° C., heat treatment of enzyme no, reaction time 0 h
[27] = 65° C., heat treatment of enzyme no, reaction time 1 h
[28] = 65° C., heat treatment of enzyme no, reaction time 3 h
[29] = 65° C., heat treatment of enzyme no, reaction time 6 h
[30] = 65° C., heat treatment of enzyme yes, reaction time 6 h
[31] = 65 °C, heat treatment of enzyme: no, 0 h
[32] = 65 °C, heat treatment of enzyme: no, 1 h
[33] = 65 °C, heat treatment of enzyme: no, 3 h
[34] = 65 °C, heat treatment of enzyme: no, 6 h
[35] = 65 °C, heat treatment of enzyme: yes, 6 h
[36] = 80° C., heat treatment of enzyme no, reaction time 0 h
[37] = 80° C., heat treatment of enzyme no, reaction time 1 h
[38] = 80° C., heat treatment of enzyme no, reaction time 3 h
[39] = 80° C., heat treatment of enzyme no, reaction time 6 h
[40] = 80° C., heat treatment of enzyme yes, reaction time 6 h
[41] = 80 °C, heat treatment of enzyme: no, 0 h
[42] = 80 °C, heat treatment of enzyme: no, 1 h
[43] = 80 °C, heat treatment of enzyme: no, 3 h
[44] = 80 °C, heat treatment of enzyme: no, 6 h
[45] = 80 °C, heat treatment of enzyme: yes, 6 h

O=c1c(-c2ccc(O)cc2)coc2cc(O)ccc12 [daidzein]
Decomposition efficiency of daidzin family in concentrated soybean protein [1]: 3.0% | Decomposition efficiency of daidzin family in defatted soybean [1]: 14.5% | Decomposition efficiency of daidzin family in concentrated soybean protein [2]: 26.2% | Decomposition efficiency of daidzin family in defatted soybean [2]: 53.4% | Decomposition efficiency of daidzin family in concentrated soybean protein [3]: 42.7% | Decomposition efficiency of daidzin family in defatted soybean [3]: 54.8% | Decomposition efficiency of daidzin family in concentrated soybean protein [4]: 52.5% | Decomposition efficiency of daidzin family in defatted soybean [4]: 54.9% | Decomposition efficiency of daidzin family in concentrated soybean protein [5]: 3.2% | Decomposition efficiency of daidzin family in defatted soybean [5]: 54.6% | Decomposition efficiency of daidzin family in soymilk (30 °C, heat treatment of enzyme: no, 0 h): 9.1% | Decomposition efficiency of daidzin family in soymilk (30 °C, heat treatment of enzyme: no, 1 h): 41.8% | Decomposition efficiency of daidzin family in soymilk (30 °C, heat treatment of enzyme: no, 3 h): 47.2% | Decomposition efficiency of daidzin family in soymilk (30 °C, heat treatment of enzyme: no, 6 h): 53.8% | Decomposition efficiency of daidzin family in soymilk (30 °C, heat treatment of enzyme: yes, 6 h): 9.1% | Decomposition efficiency of daidzin family in roasted soy flour (35 °C, heat treatment of enzyme: no, 0 h): 3.6% | Decomposition efficiency of daidzin family in roasted soy flour (35 °C, heat treatment of enzyme: no, 1 h): 41.4% | Decomposition efficiency of daidzin family in roasted soy flour (35 °C, heat treatment of enzyme: no, 3 h): 54.7% | Decomposition efficiency of daidzin family in roasted soy flour (35 °C, heat treatment of enzyme: no, 6 h): 60.4% | Decomposition efficiency of daidzin family in roasted soy flour (35 °C, heat treatment of enzyme: yes, 6 h): 5.8% | Decomposition efficiency of daidzin family in concentrated soybean protein [6]: 3.1% | Decomposition efficiency of daidzin family in defatted soybean [6]: 16.2% | Decomposition efficiency of daidzin family in concentrated soybean protein [7]: 45.3% | Decomposition efficiency of daidzin family in defatted soybean [7]: 54.5% | Decomposition efficiency of daidzin family in concentrated soybean protein [8]: 48.8% | Decomposition efficiency of daidzin family in defatted soybean [8]: 56.3% | Decomposition efficiency of daidzin family in concentrated soybean protein [9]: 55.5% | Decomposition efficiency of daidzin family in defatted soybean [9]: 58.3% | Decomposition efficiency of daidzin family in concentrated soybean protein [10]: 5.7% | Decomposition efficiency of daidzin family in defatted soybean [10]: 55.7% | Decomposition efficiency of daidzin family in roasted soy flour [11]: 3.7% | Decomposition efficiency of daidzin family in soymilk [11]: 8.9% | Decomposition efficiency of daidzin family in roasted soy flour [12]: 53.5% | Decomposition efficiency of daidzin family in soymilk [12]: 43.0% | Decomposition efficiency of daidzin family in roasted soy flour [13]: 59.4% | Decomposition efficiency of daidzin family in soymilk [13]: 52.0% | Decomposition efficiency of daidzin family in roasted soy flour [14]: 66.2% | Decomposition efficiency of daidzin family in soymilk [14]: 62.8% | Decomposition efficiency of daidzin family in roasted soy flour [15]: 8.1% | Decomposition efficiency of daidzin family in soymilk [15]: 8.2% | Decomposition efficiency of daidzin family in concentrated soybean protein [16]: 3.0% | Decomposition efficiency of daidzin family in defatted soybean [16]: 14.5% | Decomposition efficiency of daidzin family in concentrated soybean protein [17]: 55.0% | Decomposition efficiency of daidzin family in defatted soybean [17]: 55.0% | Decomposition efficiency of daidzin family in concentrated soybean protein [18]: 59.4% | Decomposition efficiency of daidzin family in defatted soybean [18]: 57.3% | Decomposition efficiency of daidzin family in concentrated soybean protein [19]: 62.3% | Decomposition efficiency of daidzin family in defatted soybean [19]: 59.7% | Decomposition efficiency of daidzin family in concentrated soybean protein [20]: 3.2% | Decomposition efficiency of daidzin family in defatted soybean [20]: 55.9% | Decomposition efficiency of daidzin family in roasted soy flour [21]: 3.7% | Decomposition efficiency of daidzin family in soymilk [21]: 8.6% | Decomposition efficiency of daidzin family in roasted soy flour [22]: 57.2% | Decomposition efficiency of daidzin family in soymilk [22]: 49.1% | Decomposition efficiency of daidzin family in roasted soy flour [23]: 67.5% | Decomposition efficiency of daidzin family in soymilk [23]: 58.9% | Decomposition efficiency of daidzin family in roasted soy flour [24]: 73.3% | Decomposition efficiency of daidzin family in soymilk [24]: 68.9% | Decomposition efficiency of daidzin family in roasted soy flour [25]: 5.3% | Decomposition efficiency of daidzin family in soymilk [25]: 8.6% | Decomposition efficiency of daidzin family in concentrated soybean protein [26]: 3.0% | Decomposition efficiency of daidzin family in defatted soybean [26]: 16.2% | Decomposition efficiency of daidzin family in concentrated soybean protein [27]: 53.9% | Decomposition efficiency of daidzin family in defatted soybean [27]: 55.3% | Decomposition efficiency of daidzin family in concentrated soybean protein [28]: 55.4% | Decomposition efficiency of daidzin family in defatted soybean [28]: 58.4% | Decomposition efficiency of daidzin family in concentrated soybean protein [29]: 56.7% | Decomposition efficiency of daidzin family in defatted soybean [29]: 62.7% | Decomposition efficiency of daidzin family in concentrated soybean protein [30]: 3.2% | Decomposition efficiency of daidzin family in defatted soybean [30]: 32.0% | Decomposition efficiency of daidzin family in roasted soy flour [31]: 3.6% | Decomposition efficiency of daidzin family in soymilk [31]: 9.1% | Decomposition efficiency of daidzin family in roasted soy flour [32]: 56.3% | Decomposition efficiency of daidzin family in soymilk [32]: 48.3% | Decomposition efficiency of daidzin family in roasted soy flour [33]: 59.8% | Decomposition efficiency of daidzin family in soymilk [33]: 56.1% | Decomposition efficiency of daidzin family in roasted soy flour [34]: 62.2% | Decomposition efficiency of daidzin family in soymilk [34]: 64.7% | Decomposition efficiency of daidzin family in roasted soy flour [35]: 4.2% | Decomposition efficiency of daidzin family in soymilk [35]: 8.8% | Decomposition efficiency of daidzin family in concentrated soybean protein [36]: 3.1% | Decomposition efficiency of daidzin family in defatted soybean [36]: 16.2% | Decomposition efficiency of daidzin family in concentrated soybean protein [37]: 31.9% | Decomposition efficiency of daidzin family in defatted soybean [37]: 52.4% | Decomposition efficiency of daidzin family in concentrated soybean protein [38]: 32.0% | Decomposition efficiency of daidzin family in defatted soybean [38]: 52.0% | Decomposition efficiency of daidzin family in concentrated soybean protein [39]: 30.7% | Decomposition efficiency of daidzin family in defatted soybean [39]: 51.7% | Decomposition efficiency of daidzin family in concentrated soybean protein [40]: 3.2% | Decomposition efficiency of daidzin family in defatted soybean [40]: 21.7% | Decomposition efficiency of daidzin family in roasted soy flour [41]: 3.7% | Decomposition efficiency of daidzin family in soymilk [41]: 8.9% | Decomposition efficiency of daidzin family in roasted soy flour [42]: 47.7% | Decomposition efficiency of daidzin family in soymilk [42]: 40.3% | Decomposition efficiency of daidzin family in roasted soy flour [43]: 47.7% | Decomposition efficiency of daidzin family in soymilk [43]: 39.7% | Decomposition efficiency of daidzin family in roasted soy flour [44]: 40.8% | Decomposition efficiency of daidzin family in soymilk [44]: 34.1% | Decomposition efficiency of daidzin family in roasted soy flour [45]: 3.8% | Decomposition efficiency of daidzin family in soymilk [45]: 8.8% | maximum isolation of aglycons (concentrated soybean protein): about 62% | maximum isolation of aglycons (defatted soybean): about 60% | maximum isolation of aglycons (soy flour): about 73% | maximum isolation of aglycons (soymilk): about 70%
